According to patent US5252495A, “Immunoassay for physostigmine” (priority 1992, dated 1993):
Where two headings read alike, the source gives them in different places.

How the values were obtained:
[1] = cited from earlier work
[2] = Physostigmine pharmacokinetics and tissue concentrations in rats after intramuscular administration; format: in vivo, Male Sprague-Dawley rats; settings: 0.3 mg/kg intramuscular; for concentration at 0.5 h: 30 min; for concentration at 0.75 h: 45 min; for concentration at 1 h: 60 min; for concentration at 1.5 h: 90 min; for concentration at 2 h: 120 min
Description: To study the pharmakinetics of physostigmine and validate the RIA and the antibody specificity of the present invention, rat studies were conducted. Male Sprague-Dawley rats weighing approximately 500 grams were housed two per cage at 23° C. with a twelve hour on-off light cycle. The animals were given food and water ad libitum. After sixty days, food was withheld for twelve hours. Physostigmine, comprised of a physostigmine base dissolved in a small volume of dilute hydrochloric acid and then diluted with phosphate buffered saline, with the pH of the solution adjusted to 6.0 was administered (0.3 mg. of the physostigmine solution/Kg) intramuscularly to the rats. Groups of three animals were sacrificed by using inhalation anesthetic, Fluothane (0.01% thymol, w/w; and 0.00025% ammonia, w/w) Ayerst Laboratories, New York, […] Blood, collected via heart puncture, and tissue samples were taken. Brain, fat, heart, muscle and spleen were removed and frozen on dry ice immediately. On the date of analysis the plasma and tissue samples were thawed. The tissues were weighed and homogenized with an equal volume of cold solution of 10 mM EDTA, 150 mM NaCl and 0.5% triton X-100, pH 7.4. The suspension Was centrifuged at 15,000×g in a Sorvall RC-5B centrifuge (Dupont) for 30 min at 4° C. The supernatent was collected and the pellet was Washed and centrifuged. The supernatants were combined and filtered through 1 um pore size filters (RC 60, 9 mm diameter from Schleicher and Schuell Inc., Keene, N.H.) and 100 ul of the filtrate was injected into the HPLC column.
The blood and tissue samples were used to determine the concentration of physostigmine as a function of time. FIG. 3 gives the physostigmine level in the plasma of three male rats for each time interval as determined by the RIA of the present invention, while Table 4 presents the concentration of physostigmine in various organs as a function of time.

[3] = particularly in plasma and blood; cited from earlier work
[4] = rat, brain, im, read-out: Tissue concentration of physostigmine, Brain
[5] = rat, fat, im, read-out: Tissue concentration of physostigmine, Fat
[6] = rat, heart, im, read-out: Tissue concentration of physostigmine, Heart
[7] = rat, muscle, im, read-out: Tissue concentration of physostigmine, Muscle
[8] = rat, spleen, im, read-out: Tissue concentration of physostigmine, Spleen

Compound: CNC(=O)Oc1ccc2c(c1)[C@]1(C)CCN(C)[C@@H]1N2C [Physostigmine, physostigmine]
- lipid solubility [1]: high degree of lipid solubility
- solubility in biological fluids [1]: soluble in biological fluids
- Tissue concentration of physostigmine, Brain ([2]; 180 min): 0.00 ng/g
- Tmax ([2]; im, rat, spleen, read-out: time during which spleen levels continued to increase (converted)): 20 min
- estimated plasma half-life during the rapid decline phase ([2]; rat): approximately 15 min
- time until present in all of the tissues studied ([2]; rat): ≤ 2.5 min
- tissue distribution ([2]; rat): rapidly distributed to central as well as peripheral tissues
- tissues with highest tissue concentrations ([2]; rat): heart and spleen
- concentration at 2.5 min [2, 4]: 331 ng/g
- concentration at 5 min [2, 4]: 297 ng/g
- concentration at 10 min [2, 4]: 292 ng/g
- concentration at 20 min [2, 4]: 198 ng/g
- concentration at 0.5 h [2, 4]: 173 ng/g
- concentration at 0.75 h [2, 4]: 45.6 ng/g
- concentration at 1 h [2, 4]: 15.7 ng/g
- concentration at 1.5 h [2, 4]: 3.05 ng/g
- concentration at 2 h [2, 4]: 0.53 ng/g
- concentration at 2.5 min [2, 5]: 230 ng/g
- concentration at 5 min [2, 5]: 533 ng/g
- concentration at 10 min [2, 5]: 398 ng/g
- concentration at 20 min [2, 5]: 360 ng/g
- concentration at 0.5 h [2, 5]: 292 ng/g
- concentration at 0.75 h [2, 5]: 95 ng/g
- concentration at 1 h [2, 5]: 86.3 ng/g
- concentration at 1.5 h [2, 5]: 80.5 ng/g
- concentration at 2 h [2, 5]: 58.6 ng/g
- concentration at 3 h ([2]; rat, fat, im, 180 min, read-out: Tissue concentration of physostigmine, Fat): 10.3 ng/g
- concentration at 2.5 min [2, 6]: 332 ng/g
- concentration at 5 min [2, 6]: 785 ng/g
- concentration at 20 min [2, 6]: 371 ng/g
- concentration at 0.5 h [2, 6]: 213 ng/g
- concentration at 0.75 h [2, 6]: 79.2 ng/g
- concentration at 1 h [2, 6]: 78.5 ng/g
- concentration at 1.5 h [2, 6]: 66.9 ng/g
- concentration at 2 h [2, 6]: 47.2 ng/g
- concentration at 3 h ([2]; rat, heart, im, 180 min, read-out: Tissue concentration of physostigmine, Heart): 48.7 ng/g
- concentration at 2.5 min [2, 7]: 321 ng/g
- concentration at 5 min [2, 7]: 225 ng/g
- concentration at 10 min [2, 7]: 540 ng/g
- concentration at 20 min [2, 7]: 323 ng/g
- concentration at 0.5 h [2, 7]: 243 ng/g
- concentration at 0.75 h [2, 7]: 241 ng/g
- concentration at 1 h [2, 7]: 86 ng/g
- concentration at 1.5 h [2, 7]: 70 ng/g
- concentration at 2 h [2, 7]: 35 ng/g
- concentration at 3 h ([2]; rat, muscle, im, 180 min, read-out: Tissue concentration of physostigmine, Muscle): 37.5 ng/g
- concentration at 2.5 min [2, 8]: 322 ng/g
- concentration at 5 min [2, 8]: 627 ng/g
- concentration at 10 min [2, 8]: 955 ng/g
- concentration at 20 min [2, 8]: 986 ng/g
- concentration at 0.5 h [2, 8]: 912 ng/g
- concentration at 0.75 h [2, 8]: 835 ng/g
- concentration at 1 h [2, 8]: 540 ng/g
- concentration at 1.5 h [2, 8]: 358 ng/g
- concentration at 2 h [2, 8]: 227 ng/g
- concentration at 3 h ([2]; rat, spleen, im, 180 min, read-out: Tissue concentration of physostigmine, Spleen): 55.6 ng/g
- in vitro hydrolysis in biological solutions [3]: extensive in vitro hydrolysis
